Reference: publication PMC6009590 (The Journal of Infectious Diseases, 2018)
[ ]: non-standard residue; d: D form. The star is where a group is joined. X1 = CC(C)CCC[C@@H](C)[C@H]1CC[C@H]2[C@@H]3CC=C4C[C@@H](OC(=O)C*)CC[C@]4(C)[C@H]3CC[C@]12C; PEG4 = NCCOCCOCCOCCOCCC(=O)O

Experiments:
proteinase K [1] = target: T1, proteinase K (Parengyodontium album, UniProt P06873); conditions: isolated enzyme proteinase k, pH 7.5
[2] = in vivo
proteinase K [3] = target: T1, proteinase K; test: in vitro; conditions: isolated enzyme proteinase k, pH 7.5

T1 sequence (P06873 106-384): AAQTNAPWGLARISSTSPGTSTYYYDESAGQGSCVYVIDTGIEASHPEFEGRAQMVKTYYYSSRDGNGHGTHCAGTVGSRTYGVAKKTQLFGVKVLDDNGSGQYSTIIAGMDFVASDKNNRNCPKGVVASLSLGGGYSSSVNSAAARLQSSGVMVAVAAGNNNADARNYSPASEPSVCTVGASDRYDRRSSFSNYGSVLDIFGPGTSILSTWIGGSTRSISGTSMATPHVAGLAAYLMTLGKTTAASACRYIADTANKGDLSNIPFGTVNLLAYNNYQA

Substance: Ac-VALDPIDISIVLNKIKSDLEESKEWIRRSNKILDSI-GSGSG-dPEG4-C-(PEG4-Chol)2-NH2 [VIKI-dPEG4-bisChol]
- half-life of the intact peptide fraction (proteinase K [1]): 3 min

Substance: Ac-VALDPIDISIVLNKIKSDLEESKEWIRRSNKILDSI-GSGSG-dPEG4-C-(PEG4-Toco)2-NH2 [VIKI-dPEG4-bisToco]
- half-life of the intact peptide fraction (proteinase K [1]): 5 min

Substance: Ac-VALDPIDISIVLNKIKSDLEESKEWIRRSNKILDSIGSGSG[PEG4]C(X1)-NH2 [VIKI-dPEG4-Chol]
- biodistribution (lung, blood, CNS) [2]: reached high levels in the lung
- half-life (proteinase K [3]): 10 min
